One molecule from patent US20090186915A1, “Compositions and methods for treatment of glioblastoma, gliosarcoma, NSCLC, and head and neck cancer” (Unibioscreen S. A., priority 2006, published 2009) can be followed below.

Experiment [1] concerns glioma Hs683 and U373 cells. Put plainly: Cell cycle kinetics by flow cytometry, glioma cells. The class given is cell-based, human. As to the method: The cell cycle kinetics of glioma Hs683 (ATCC code HTB-138) and U373 (ATCC code HTB-17) cells left untreated or incubated with UNBS5162 as indicated were determined by flow cytometry analysis of propidium iodide (PI) nuclear staining, using previously detailed methodology (Mijatovic et al. Neoplasia 2006, 2008). Each sample was evaluated in triplicate. Flow cytometry was undertaken using an Epics XL.MCL flow cytometer and the F ACScan/CellQuest software system (Becton Dickinson, Miami, Fla., USA).

Experiment [2] relates to P-glycoprotein. Description: P-gp ATPase activity (P-gp Drug interaction Assay Kit). In kind it is biochemical. As for the experimental part:
In order to test drug interaction with P-glucoprotein (herein-after referred as P-gp) we used an assay based on the study of modulation of ATPase activity from enriched P-gp membrane vesicle preparation (the following kit has been used: P-gp Drug interaction Assay Kit commercially available from SPI BIO France). P-gp ATPase activity was measured by a spectrophotometric method based on monitoring of ADP formation in the vesicle suspension medium. The basal ATPase activity was defined as the activity determined in the absence of any added drug. […]

Experiment [3] deals with U-373MG. Description: MTT overall cell growth, U-373MG cells. The class given is cell-based. Conditions: Homo sapiens. As to the method:
(§1) Tests were performed in order to rapidly, i.e. within 5 days, measure the effect of the compound of example 2 on the overall cell growth. The test measures the number of metabolically active living cells that are able to transform the yellow product 3-(4,5-dimethylthiazol-2-yl)-2,5-diphenyl tetrazolium bromide (herein referred as MTT) into the blue product formazan dye by mitochondrial reduction. The amount of formazan obtained at the end of the experiment, measured by means of a spectrophotometer, is directly proportional to the number of living cells. Optical density determination thus enables a quantitative measurement of the effect of the investigated compounds as compared to the control condition (untreated cells) and/or to other reference compounds.
(§2) Six human cancer cell lines described in table 1 were used in the following MTT tests. These cell lines cover six histological cancer types, being prostate, glioma, pancreas, colon, lung and breast cancers. Cells were allowed to grow in 96 well micro-wells with a flat bottom with an amount of 100 μl of cell suspension per well with 1,000 to 4,000 cells/well depending on the cell type used. Each cell line was seeded in a well known MEM 10% serum culture medium. […]
(§3) After 72 hours of incubation at 37° C. with (experimental conditions) or without (control condition) the compound to be tested, the medium was replaced by 100 μl MTT dissolved in RPMI (1640 without phenol red) at a concentration of 1 mg/ml. […] The micro-wells were shaken for 5 minutes and read on a spectrophotometer at wavelengths of 570 nm (maximum formazan absorbance) and 630 nm (back-ground noise).
(§4) For each experimental condition, the mean optical density was calculated, as well as the percentage of remaining living cells in comparison with the control.
(§5) The overall growth of human cancer cell lines was determined by means of the calorimetric MTT (3-[4,5-dimethylthiazol-2-yl]-diphenyl tetrazolium bromide; Sigma) assay, as detailed previously.

Experiment [4] deals with BxPC3. Description: MTT overall cell growth, BxPC3 cells. The class given is cell-based. Conditions: Homo sapiens. As for the experimental part: as §1, §2, §3, §4, §5
The test system of experiment [5] is PC3. Description: MTT overall cell growth, PC3 cells. The class given is cell-based. To be noted: Homo sapiens, 72 h; PC-3; 3 days of culturing; mean of six determinations; read-out: IC50 (μM) In Vitro Growth Inhibition. As to the method: as §1, with “compounds. […]” for “compounds.”
as §3
For each experimental condition, the mean optical density was calculated, as well as the percentage of remaining living cells in comparison with the control. […]

For experiment [6], the system named is E2F1. Put plainly: E2F1 expression (Western blot), DU-145. The class given is cell-based, human. To be noted: 10 μM.
Experiment [7] concerns PC-3. Description: Cell cycle kinetics by flow cytometry (PI), PC-3. The class given is cell-based, human. As to the method:
The cell cycle kinetics of prostate cancer cells left untreated or incubated with UNBS5162 were determined by flow cytometry analysis of propidium iodide (PI) nuclear staining, using previously detailed methodology. Each sample was evaluated in triplicate. Flow cytometry was undertaken using an Epics XL.MCL flow cytometer and the FACScan/CellQuest software system (Becton Dickinson, Miami, Fla.).

Experiment [8] concerns CXCL-1 and CXCL-8. Put plainly: ELISA of CXCL1 and CXCL8, OE21 cells. The class given is cell-based, human. Conditions: 5×1 μM. As to the method: ELISA determination of CXCL1 and CXCL8 (IL-8) protein levels in untreated and 5×1 μM UNBS5162-treated OE21 cells. “5×1 μM” means that tumor cells were treated in vitro for one day with 1 μM UNBS5162 and then the culture medium was replaced by fresh medium containing 1 μM UNBS5162; this procedure of renewal of cell medium containing 1 μM UNBS5162 was repeated for five consecutive days, with determination of chemokine concentration being performed 24 h (+24 h) or 72 h (+72 h) after the 5th (last) treatment of tumor cells with UNBS5162. The concentrations of the two specific chemokines (expressed as pg/mL) were normalized by the cell number determined in each sample. Each sample was assessed in triplicate. The data are presented as means (grey columns)±SEM (thin bars) in FIG. 9.

Molecules are shown by their SMILES. Read-outs that look alike come from different tables or passages of the source.

On to `CN(C)CCN1C(=O)c2cccc3cc(NC(N)=O)cc(c23)C1=O` [UNBS5162, N-{2-[2-(dimethylamino)ethyl]-1,3-dioxo-2,3-dihydro-1H-benzo[de]isoquinolin-5-yl}urea], for which the “cell cycle kinetics, G2 block” value in experiment [1] (Hs683 and U373, 10 μM for 72 h) was “markedly blocked both Hs683 and U373 cells in their G2 cell cycle phase”; in experiment [7] (10 μM for 72 hours) it was “markedly blocked PC-3 cells in their G2 cell cycle phase”. For the same molecule, the cell cycle kinetics result in experiment [1] (glioma cells, 1 μM) is on record as “did not significantly modify glioma cell cycle kinetics”; in experiment [1] (glioma cells, chronic 1 μM for five days) it was “did not notably modify glioma cell cycle kinetics”; in experiment [7] (1 μM), “did not significantly (P>0.05) modify”; in experiment [7] (chronic 1 μM for 5 days (5×1) or 3 weeks (3w1)), “did not notably modify PC-3 cell cycle kinetics”. Also, the “cell death on chronic treatment” value in experiment [1] (glioma cells, chronic 10 μM for five days) was “induced the death of all assayed cells before the end of experiment”. Besides, the “modulation of Pgp ATPase activity” value in experiment [2] (100 μM (data not shown)) is “do not affect Pgp ATPase activity”. Moreover, the “modulation of basal P-gp ATPase activity” value in experiment [2] (2, 10, and 50 μM) is recorded as “does not affect ATPase activity”. Besides, the IC50 was 4.7 µM in experiment [3] (72 h, U373-MG, 3 days of culturing, mean of six determinations, read-out: IC50 (μM) In Vitro Growth Inhibition); 5 to 10 µM in experiment [3] (U373 MG, U-373MG, 72 hours incubation, range of molar concentrations, read-out: IC50); 9.1 µM in experiment [4] (BXPC-3, 72 h, Bx-PC-3, 3 days of culturing, mean of six determinations, read-out: IC50 (μM) In Vitro Growth Inhibition); 5 to 10 µM in experiment [4] (BXPC-3, BxPC3, 72 hours incubation, range of molar concentrations, read-out: IC50); 17.3 µM in experiment [5]. Besides, the E2F1 expression entry in experiment [6] was “a decrease but not the complete disappearance of Rb protein and E2F1 expression”. Besides, in experiment [8], the “CXCL-1 and CXCL-8 protein levels (ELISA)” value was “a marked decrease in CXCL-1 and CXCL-8”.
